Consider five compounds from patent US5571816A, “Pyrimidines” (Hoechst Aktiengesellschaft, priority 1992, dated 1996).

Counter-ions that a name gives are not always drawn. Like-named read-outs stand apart in the source and are kept apart here.

In series [1] the test system is LDL receptor mRNA. The series is described as follows: Stimulation of LDL receptor mRNA expression in HepG2 cells (Northern blot). The format is cell-based. The conditions noted are these: Homo sapiens; HepG2, 2 × 10^-6 M, 16 h; control = 100%; ratio to β-actin mRNA. As to the method:
1a. In the human hepatocytoma cell line HepG2, which is recognized everywhere as model, the LDL receptor mRNA levels are increased by the compounds of the formula I (Table I).
(§1) The mRNA was prepared by the method described by Chomczynski, P. and Sacchi, N., in Anal. Biochem. 162, 156-159 (1987). In the case of organs (such as, for example, liver), the deep-frozen tissue was previously homogenized on dry ice in a mortar, and the mRNA was further concentrated by means of oligo dT by standard methods (cf. Sambrook, J., Fritsch, E. F. and Maniatis, T., Molecular Cloning, second edition, Cold Spring Harbor (1989); this collection of methods also includes descriptions of all the other relevant standard processes of molecular biology used here). 5 to […] of the dissolved mRNA obtained in this way were denatured by standard processes and fractionated on 1% horizontal agarose gels. The mRNA was transferred by capillary blotting to Hybond N membranes (Amersham). Used as specific hybridization probe was a partial LDL receptor cDNA clone and as internal standard was a plasmid which contained a β-actin gene. Both plasmids were labeled using a random primer kit from Amersham to a specific activity of 5×10^9 cpm/μg. Prehybridization, hybridization and washing of the filters took place by standard processes. The filters were subsequently exposed on Cronex 4 films (Dupont) in the presence of an intensifying screen at -70° C. overnight or for up to 14 days, and the hybridization signals were quantified from the intensity of blackening of the film using a commercially available laser densitometer. Subsequently, the quotient of the intensity of the LDL receptor band and of the actin band was determined as internal standard to correct for variations in yield.
The HepG2 cells were incubated in RPMI 1640 standard medium with fetal calf serum (final concentration 10%). Serum-free RPMI medium was used as induction control. Subsequently, the complete mRNA was prepared and, by means of the Northern blot technique, the relevant LDL receptor mRNA and β-actin mRNA levels were determined. The quotient of the LDL receptor mRNA signal and of the β-actin mRNA signal of the control (without added substance) was set equal to 100%, and the stimulation above this of the LDL receptor mRNA levels achieved under the influence of the compounds was expressed as percentage of the control.

The subject of series [2] is LDL receptor mRNA. The series is described as follows: Stimulation of LDL receptor mRNA expression in rat livers (Northern blot). The class given is in vivo. The conditions noted are these: rat liver, 30 mg/kg, 6 hours after administration; untreated control = 100%. On the procedure:
1b. The LDL receptor mRNA levels are also raised in rat livers by compounds of the formula I within a few hours (Table II).
as §1
Liver tissue was removed and shock-frozen in liquid nitrogen.
Subsequently, the mRNA was isolated as described and, by means of the Northern blot technique, the relative LDL receptor mRNA levels were determined. The mRNA level of untreated control animals was set equal to 100%, and the stimulation of the LDL receptor mRNA was calculated as a percentage of the […]

Series [3] concerns serum lipoproteins. The series is described as follows: Effect on serum lipoproteins of normolipemic male rats in a subchronic experiment. The class given is in vivo. To be noted: Rattus norvegicus, po, by stomach tube, 7 administrations; for change in vivo at 3 mg/kg: 3 mg/kg/day; for change in vivo at 10 mg/kg: 10 mg/kg/day; for change in vivo at 30 mg/kg: 30 mg/kg/day; for change in vivo at 1 mg/kg: 1 mg/kg/day. The procedure, abridged:
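Male HOE: WISKf rats (>180 g, 10/group) dosed orally by stomach tube once daily for 7 days in 1% aqueous Tylose; fasted 24 h and bled 24 h after last dose. Pooled serum ultracentrifuged into VLDL (d<1.006) and LDL (d 1.006–1.04); cholesterol and triglycerides measured enzymatically, protein by Lowry.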

Series [4] can be described thus: Solubility in water of salts (and free bases). The format is physicochemical. The conditions noted are these: Table 2, salts of compounds I, temp. by No. [°C]: 1 25.5, 2 23.0, 3 22.4, 4 22.4, 5 22.0, 6 25.0, 7 25.5, 8 25.5, 9 25.5, 10 23.5, 11 23.5, 12 25.0, 13 24.0, 14 23.0, 15 22.0, 16 24.5, 17 22.5, 18 22.0; for solubility: water, read-out: Solubility in water, Concentration in % by wt.

Where [5] appears, read: read-out: Serum LDL cholesterol, % change from control at end of treatment.
Where [6] appears, read: read-out: Serum LDL protein, % change from control at end of treatment.
Where [7] appears, read: read-out: Serum VLDL cholesterol, % change from control at end of treatment.
[8] abbreviates: read-out: Serum VLDL protein, % change from control at end of treatment.
Setting [9] is: read-out: Serum VLDL triglycerides, % change from control at end of treatment.

For `CC1(C)CN(c2ncc(C(=O)N(c3cccc(C(F)(F)F)c3)C3CCCC3)c(N)n2)C(=O)N1` [Example 42], the activity at 2 µM in series [1] came out at 180%. Also, the “LDL receptor mRNA” value in series [2] was 312%. In addition, the change in vivo at 3 mg/kg is -34% in series [3] (setting [5]); -22% in series [3] (setting [6]); -23% in series [3] (setting [7]); -11% in series [3] (setting [8]); -29% in series [3] (setting [9]). Also, the change in vivo at 10 mg/kg in series [3] (setting [5]) is -29%; in series [3] (setting [6]) it was -9%; in series [3] (setting [7]) it was -23%; in series [3] (setting [8]), -10%; in series [3] (setting [9]), -29%. Moreover, the change in vivo at 30 mg/kg in series [3] (setting [5]) is -48%; in series [3] (setting [6]) it was -29%; in series [3] (setting [7]), -70%; in series [3] (setting [8]), -40%; in series [3] (setting [9]) it was -61%.
Consider `CC(C)N(C(=O)c1cnc(N2CC(C)(C)NC2=O)nc1N)c1cccc(C(F)(F)F)c1` [Example 4, 4-amino-2-(4,4-dimethyl-2-oxo-1-imidazolidinyl)pyrimidine-5-carboxylic acid N-isopropyl-N-(3-trifluoromethylphenyl)amide hydrochloride], for which, in series [1], the activity at 2 µM amounted to 205%. The “LDL receptor mRNA” value in series [2] is given as 221%. Further, the change in vivo at 10 mg/kg in series [3] (setting [5]) was -39%; in series [3] (setting [6]), -33%; in series [3] (setting [7]) it was 2%; in series [3] (setting [8]), -18%. Moreover, the change in vivo at 30 mg/kg in series [3] (setting [5]) is -68%; in series [3] (setting [6]) it was -53%; in series [3] (setting [7]) it was -70%; in series [3] (setting [8]) it was -13%; in series [3] (setting [9]), -29%.
As to `CCN(C(=O)c1cnc(N2CC(C)(C)NC2=O)nc1N)c1cccc(C(F)(F)F)c1` [Example 2, 4-amino-2-(4,4-dimethyl-2-oxo-1-imidazolidinyl)pyrimidine-5-carboxylic acid N-ethyl-N-(3-trifluoromethylphenyl)amide hydrochloride], the activity at 2 µM in series [1] is 175%. Moreover, the “LDL receptor mRNA” value in series [2] amounted to 300%. For the same compound, the change in vivo at 1 mg/kg in series [3] (setting [5]) is -28%; in series [3] (setting [6]), -44%; in series [3] (setting [7]), -22%. Further, the change in vivo at 3 mg/kg in series [3] (setting [5]) was 40%; in series [3] (setting [6]), -28%; in series [3] (setting [7]) it was -30%; in series [3] (setting [8]), -7%; in series [3] (setting [9]), 40%. The change in vivo at 10 mg/kg is -32% in series [3] (setting [5]); -28% in series [3] (setting [6]); -41% in series [3] (setting [7]); -28% in series [3] (setting [8]); -26% in series [3] (setting [9]). Also, the change in vivo at 30 mg/kg in series [3] (setting [5]) was -75%; in series [3] (setting [6]) it was -73%; in series [3] (setting [7]), -96%; in series [3] (setting [8]), 40%; in series [3] (setting [9]), -81%.
`CCCN(C(=O)c1cnc(N2CC(C)(C)NC2=O)nc1N)c1cccc(C(F)(F)F)c1` [Example 33]: the activity at 2 µM in series [1] was 205%. Besides, the “LDL receptor mRNA” value in series [2] came to 350%. Also, the “1 part by mass dissolves in ... parts by H2O” value in series [4] turned out to be 22.8 parts by H2 O. For the same compound, the solubility in series [4] is 42 mg/mL. Also, the change in vivo at 10 mg/kg in series [3] (setting [5]) is -47%; in series [3] (setting [6]), -33%; in series [3] (setting [7]), 48%; in series [3] (setting [8]) it was -29%; in series [3] (setting [9]) it was -73%. Further, the change in vivo at 30 mg/kg was -67% in series [3] (setting [5]); 44% in series [3] (setting [6]); -95% in series [3] (setting [7]); -33% in series [3] (setting [8]); -100% in series [3] (setting [9]).
Take `C=CCN(C(=O)c1cnc(N2CC(C)(C)NC2=O)nc1N)c1cccc(C(F)(F)F)c1` [Example 40]: in series [1], the activity at 2 µM amounted to 180%. Besides, the “LDL receptor mRNA” value in series [2] amounted to 340%. Further, the “1 part by mass dissolves in ... parts by H2O” value in series [4] was found to be 12.1 parts by H2 O. Further, the solubility in series [4] worked out at 76.6 mg/mL. Also, the change in vivo at 3 mg/kg is -22% in series [3] (setting [5]), -18% in series [3] (setting [6]), -19% in series [3] (setting [7]) and -11% in series [3] (setting [8]). Moreover, the change in vivo at 10 mg/kg in series [3] (setting [5]) was -53%; in series [3] (setting [6]), -38%; in series [3] (setting [7]), -40%; in series [3] (setting [8]), -41%; in series [3] (setting [9]), -2%. Besides, the change in vivo at 30 mg/kg in series [3] (setting [5]) was -58%; in series [3] (setting [6]) it was -52%; in series [3] (setting [7]), -57%; in series [3] (setting [8]), -52%; in series [3] (setting [9]) it was -41%.
